Reference: PubChem BioAssay (NCI)
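96-well plates; 48 h exposure; 5 concentrations. Endpoints by linear interpolation between flanking doses. Not reached: highest tested concentration assigned. GI50 marks 50% less growth. TGI is the concentration that stops growth completely.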

How the values were obtained:
Test in all cases: NCI tumour cell line growth inhibition, 48 h
SNB-75 CNS = tested on: SNB-75 CNS
K-562 leukemia = tested on: K-562 leukemia
HCT-15 colon = tested on: HCT-15 colon
SF-268 CNS = tested on: SF-268 CNS
SF-539 CNS = tested on: SF-539 CNS
CCRF-CEM leukemia = tested on: CCRF-CEM leukemia
ACHN renal = tested on: ACHN renal
NCI-H226 lung = tested on: NCI-H226 lung
EKVX NSCLC = tested on: EKVX NSCLC
RPMI-8226 leukemia = tested on: RPMI-8226 leukemia
HOP-62 NSCLC = tested on: HOP-62 NSCLC
SW-620 colon = tested on: SW-620 colon
UO-31 renal = tested on: UO-31 renal
DU-145 prostate = tested on: DU-145 prostate
HL-60(TB) leukemia = tested on: HL-60(TB) leukemia
OVCAR-5 ovarian = tested on: OVCAR-5 ovarian
SNB-19 CNS = tested on: SNB-19 CNS
BT-549 breast = tested on: BT-549 breast
TK-10 renal = tested on: TK-10 renal
NCI-H460 lung = tested on: NCI-H460 lung
NCI-H522 lung = tested on: NCI-H522 lung
U251 CNS = tested on: U251 CNS
PC-3 prostate = tested on: PC-3 prostate
A549 NSCLC = tested on: A549 NSCLC
MDA-MB-231 breast = tested on: MDA-MB-231 breast
SF-295 CNS = tested on: SF-295 CNS
CAKI-1 renal = tested on: CAKI-1 renal
SK-MEL-28 melanoma = tested on: SK-MEL-28 melanoma
A498 renal = tested on: A498 renal

Compound `CC(C)c1nc(CN(C)C(=O)N[C@H](C(=O)N[C@@H](Cc2ccccc2)C[C@H](O)[C@H](Cc2ccccc2)NC(=O)OCc2cncs2)C(C)C)cs1` has a TGI (SNB-75 CNS) of 54.3 µM, a GI50 (K-562 leukemia) of 26.6 µM and a TGI (K-562 leukemia) of 92.1 µM. The GI50 (HCT-15 colon) was 24.5 µM, the TGI (HCT-15 colon) was > 100 µM and the GI50 (SF-268 CNS) was 20.3 µM. For the same compound, the TGI (SF-268 CNS) was 66.7 µM, the GI50 (SF-539 CNS) was 2.33 µM and the TGI (SF-539 CNS) was 49.4 µM. It also gave a GI50 (CCRF-CEM leukemia) of 19.8 µM, a TGI (CCRF-CEM leukemia) of 50.5 µM and a GI50 (ACHN renal) of 29.1 µM. For the same compound, the TGI (ACHN renal) was 82.3 µM, the GI50 (NCI-H226 lung) was 18.8 µM and the TGI (NCI-H226 lung) was 39.4 µM. For the same compound, the GI50 (EKVX NSCLC) was 4.11 µM, the TGI (EKVX NSCLC) was > 100 µM and the GI50 (RPMI-8226 leukemia) was 7.9 µM. For the same compound, the TGI (RPMI-8226 leukemia) was 27.7 µM, the GI50 (HOP-62 NSCLC) was 19.6 µM and the TGI (HOP-62 NSCLC) was 38.2 µM. For the same compound, the GI50 (SW-620 colon) was 34.9 µM, the TGI (SW-620 colon) was > 100 µM and the GI50 (UO-31 renal) was 24.5 µM. The TGI (UO-31 renal) was > 83.8 µM, the GI50 (DU-145 prostate) was 1.42 µM and the GI50 (HL-60(TB) leukemia) was 12.2 µM. For the same compound, the TGI (HL-60(TB) leukemia) was 36.9 µM, the GI50 (OVCAR-5 ovarian) was 28.2 µM and the TGI (OVCAR-5 ovarian) was 71.5 µM. The GI50 (SNB-19 CNS) was 26.4 µM, the TGI (SNB-19 CNS) was > 89 µM and the GI50 (BT-549 breast) was 8.71 µM. The TGI (BT-549 breast) was > 76.5 µM, the GI50 (TK-10 renal) was 36.6 µM and the TGI (TK-10 renal) was > 92.6 µM. For the same compound, the GI50 (NCI-H460 lung) was 17.5 µM, the TGI (NCI-H460 lung) was 55.7 µM and the GI50 (NCI-H522 lung) was 28.7 µM. The TGI (NCI-H522 lung) was > 81 µM, the GI50 (U251 CNS) was 24.3 µM and the TGI (U251 CNS) was 71.2 µM. It also gave a GI50 (PC-3 prostate) of 20.8 µM, a TGI (PC-3 prostate) of 79.2 µM and a GI50 (A549 NSCLC) of 23 µM. It also gave a TGI (A549 NSCLC) of 65.5 µM, a GI50 (MDA-MB-231 breast) of 18 µM and a TGI (MDA-MB-231 breast) of 35.1 µM. It also gave a GI50 (SF-295 CNS) of 22.1 µM, a TGI (SF-295 CNS) of 50.5 µM and a GI50 (CAKI-1 renal) of 31.3 µM. For the same compound, the TGI (CAKI-1 renal) was 68.2 µM, the GI50 (SK-MEL-28 melanoma) was 21.5 µM and the TGI (SK-MEL-28 melanoma) was 47.2 µM. It also gave a GI50 (A498 renal) of 19.1 µM and a TGI (A498 renal) of 43.2 µM.
